Results taken from patent publication US10626115B2, “Fused pyrimidinone and triazinone derivatives containing bridged nitrogen, their process of preparation and their therapeutic uses as antifungal and/or antiparasitic agents” (UNIVERSITE DE NANTES, priority 2015, dated 2020).
In brackets after ≈: the same amount, converted by molar mass.

Experiments:
[1] = tested on: fluconazole-susceptible C. albicans strain: CAAL93; experiment: Antifungal susceptibility, spectrofluorimetric microdilution, CAAL93; type: cell-based; conditions: Candida albicans, read-out: MIC values CAAL93
Experimental: (§1) Eight strains of Candida spp. with various azoles-susceptibilities were used: • One fluconazole-susceptible C. albicans strain: CAAL93 • Two fluconazole-resistant C. albicans strains: CAAL111 (efflux pump) and CAAL117 (erg11 mutations+voriconazole-resistant) • five fluconazole-resistant Candida non albicans strains: C. krusei (CAKR7, CAKR8), C. glabrata (CAGL2), C. parapsilosis s.l. (CAPA1, CAPA2).
(§2) Antifungal susceptibility was evaluated with a spectrofluorimetric microdilution method.

[2] = tested on: fluconazole-resistant C. albicans strain CAAL111 (efflux pump); experiment: microbe, parasite or virus in culture; type: cell-based; conditions: Candida albicans, read-out: MIC values CAAL111
Experimental: as §1, §2

[3] = tested on: fluconazole-resistant C. glabrata (CAGL2); experiment: microbe, parasite or virus in culture; type: cell-based; conditions: Nakaseomyces glabratus, read-out: MIC values CAGL2
Experimental: as §1, §2

[4] = tested on: fluconazole-resistant C. krusei (CAKR8); experiment: microbe, parasite or virus in culture; type: cell-based; conditions: Pichia kudriavzevii, read-out: MIC values CAKR8
Experimental: as §1, §2

[5] = tested on: fluconazole-resistant C. parapsilosis s.l. (CAPA1); experiment: microbe, parasite or virus in culture; type: cell-based; conditions: Lodderomyces parapsilosis, read-out: MIC values CAPA1
Experimental: as §1, §2

[6] = tested on: fluconazole-resistant C. parapsilosis s.l. (CAPA2); experiment: microbe, parasite or virus in culture; type: cell-based; conditions: Lodderomyces parapsilosis, read-out: MIC values CAPA2
Experimental: as §1, §2

[7] = tested on: A. fumigatus susceptible strain ASFU76; experiment: Antifungal susceptibility, spectrofluorimetric microdilution, ASFU76; type: cell-based, Aspergillus fumigatus; conditions: Aspergillus fumigatus, read-out: MIC values ASFU76
Experimental: (§3) Eleven strains of A. fumigatus with various itraconazole susceptibility were used: • Five susceptible strains: ASFU7, ASFU35A, ASFU38A, ASFU76 and ASFU78. • Six itraconazole-resistant strains: ASFU77 (erg11 mutation), ASFU13, ASFU17, ASFU19, ASFU20, ASFU23.
(§4) Antifungal susceptibility was evaluated with a spectrofluorimetric microdilution method. MIC was the concentration that was able to inhibit 80% of fluorescence measured in the control wells.

[8] = tested on: A. fumigatus susceptible strain ASFU35A; experiment: Antifungal susceptibility, spectrofluorimetric microdilution, ASFU35A; type: cell-based, Aspergillus fumigatus; conditions: Aspergillus fumigatus, read-out: MIC values ASFU35A
Experimental: as §3, §4

[9] = tested on: A. fumigatus susceptible strain ASFU38A; experiment: Antifungal susceptibility, spectrofluorimetric microdilution, ASFU38A; type: cell-based, Aspergillus fumigatus; conditions: Aspergillus fumigatus, read-out: MIC values ASFU38A
Experimental: as §3, §4

[10] = tested on: A. fumigatus susceptible strain ASFU7; experiment: Antifungal susceptibility, spectrofluorimetric microdilution, ASFU7; type: cell-based, Aspergillus fumigatus; conditions: Aspergillus fumigatus, read-out: MIC values ASFU7
Experimental: as §3, §4

[11] = tested on: A. fumigatus susceptible strain ASFU78; experiment: Antifungal susceptibility, spectrofluorimetric microdilution, ASFU78; type: cell-based, Aspergillus fumigatus; conditions: Aspergillus fumigatus, read-out: MIC values ASFU78
Experimental: as §3, §4

[12] = tested on: A. fumigatus itraconazole-resistant strain ASFU77 (erg11 mutation); experiment: Antifungal susceptibility, spectrofluorimetric microdilution, ASFU77; type: cell-based, Aspergillus fumigatus; conditions: for MIC: Aspergillus fumigatus, read-out: MIC values ASFU77
Experimental: as §3, §4

Hela Human cell line = experiment: Cytotoxicity on HeLa cells; type: cell-based; conditions: 100 μM
Experimental: Hela Human cell line was used in view to evaluate cytotoxicity. It was evaluated with a spectrofluorimetric microdilution method. IC50 was the concentration that was able to inhibit 50% of fluorescence measured in the control wells.

[13] = tested on: Candida albicans strain (CAAL93); experiment: Murine systemic candidiasis; type: in vivo; conditions: neutropenic Swiss mice, CAAL93 i.v., 10 mg/kg per os once a day for 5 days; for survival compared with the non-treated group: 28 days (compound 51, 14 days); for fungal burden of the kidney: p<0.05 (compound 51 p<0.001)
Experimental: Transiently neutropenic female Swiss mice were used for experiments on systemic candidiasis and invasive aspergillosis.
Mice were inoculated intravenously with a Candida albicans strain (CAAL93). Treatment was administrated once a day (10 mg/kg per os) for 5 days. […] Fungal burden of the kidney was evaluated in dead animals during the experimentation or in animals sacrificed at the end of the experimentation.

[14] = tested on: promastigote stage of a Leishmania mexicana strain; experiment: Anti-Trypanosomatidae activity, promastigote stage, spectrofluorimetric microdilution; type: cell-based
Experimental: Compounds were evaluated on the promastigote stage of a Leishmania mexicana strain using a spectrofluorimetric microdilution method. Inhibitory concentration 50 (IC50) was the concentration that inhibited 50% of the control growth.

[15] = tested on: fluconazole-resistant C. albicans strain CAAL117 (erg11 mutations+voriconazole-resistant); experiment: microbe, parasite or virus in culture; type: cell-based
Experimental: as §1, §2

[16] = tested on: fluconazole-resistant C. krusei (CAKR7); experiment: microbe, parasite or virus in culture; type: cell-based; conditions: Pichia kudriavzevii, read-out: MIC values CAKR7
Experimental: as §1, §2

[17] = tested on: A. fumigatus itraconazole-resistant strain ASFU13; experiment: Antifungal susceptibility, spectrofluorimetric microdilution, ASFU13; type: cell-based, Aspergillus fumigatus
Experimental: as §3, §4

[18] = tested on: A. fumigatus itraconazole-resistant strain ASFU17; experiment: Antifungal susceptibility, spectrofluorimetric microdilution, ASFU17; type: cell-based, Aspergillus fumigatus; conditions: Aspergillus fumigatus, read-out: MIC values ASFU17
Experimental: as §3, §4

[19] = tested on: A. fumigatus itraconazole-resistant strain ASFU19; experiment: Antifungal susceptibility, spectrofluorimetric microdilution, ASFU19; type: cell-based, Aspergillus fumigatus; conditions: Aspergillus fumigatus, read-out: MIC values ASFU19
Experimental: as §3, §4

[20] = tested on: A. fumigatus itraconazole-resistant strain ASFU20; experiment: Antifungal susceptibility, spectrofluorimetric microdilution, ASFU20; type: cell-based, Aspergillus fumigatus
Experimental: as §3, §4

[21] = tested on: A. fumigatus itraconazole-resistant strain ASFU23; experiment: Antifungal susceptibility, spectrofluorimetric microdilution, ASFU23; type: cell-based, Aspergillus fumigatus
Experimental: as §3, §4

CRL:(WI) rats = experiment: Acute oral toxicity study in rats; type: in vivo
Experimental: The single-dose oral toxicity of compound 51 was performed according to the acute toxic class method (OECD 423 and Commission Regulation (EC) No 440/2008 of 30 May 2008, B.1.Tris) in CRL:(WI) rats.
Two groups of three female CRL:(WI) rats were treated with the test item at a dose level of 300 mg/kg bw (Group 1 and Group 2).
A single oral treatment was carried out by gavage for each animal after an overnight food withdrawal. Food was made available again 3 hours after the treatment. The test item was administered formulated in DMSO at a concentration of 30 mg/mL at a dose volume of 10 mL/kg bw.
Initially, three females (Group 1) were treated at a dose level of 300 mg/kg bw. As no mortality was observed, a confirmatory group (Group 2) was treated at the same dose level.
Clinical observations were performed at 30 minutes, 1, 2, 3, 4 and 6 hours after dosing and daily for 14 days thereafter. Body weight was measured on days −1, 0 and 7 and before necropsy. All animals were subjected to a necropsy and a macroscopic examination

SMILES | MIC [1] [µg/mL] | MIC [2] [µg/mL] | MIC [3] [µg/mL] | MIC [4] [µg/mL] | MIC [7] [µg/mL] | MIC [8] [µg/mL] | MIC [9] [µg/mL] | MIC [10] [µg/mL] | MIC [11] [µg/mL] | MIC [12] [µg/mL] | cytotoxic effect at the higher concentration used (Hela Human cell line) | survival compared with the non-treated group ([13]; p<0.05) | fungal burden of the kidney [13] | further results
C[C@@H](n1ccc2nc(-c3ccc([N+](=O)[O-])cc3)cn2c1=O)[C@](O)(Cn1cncn1)c1ccc(F)cc1F [Compound 35, 6-[(1R,2R)-2-(2,4-Difluorophenyl)-2-hydroxy-1-methyl-3-(1H-1,2,4-triazol-1-yl)propyl]-2-(4-nitrophenyl)imidazo[1,2-c]pyrimidin-5-one] | < 0.001 | 0.007 ± 0.003 (≈ 0.0138 µM) | 0.2 ± 0.06 (≈ 0.394 µM) | 0.07 ± 0.01 (≈ 0.138 µM) | 7.45 ± 1 (≈ 14.7 µM) | 6.71 ± 0.06 (≈ 13.2 µM) | 25.6 ± 24.8 (≈ 50.5 µM) | 2.52 ± 0.05 (≈ 4.97 µM) | 6.19 ± 0.8 (≈ 12.2 µM) | 62.2 ± 2.92 (≈ 123 µM) | didn't show any cytotoxic effect | significant longer survival | significantly decreased | MIC [5]: 0.011 ± 0.003 µg/mL (≈ 0.0217 µM); MIC [6]: 0.004 ± 0.003 µg/mL (≈ 0.00788 µM); survival efficiency compared with FLC [13]: significantly more efficient than FLC; activity on fungal burden of the kidney compared to FLC ([13]; p<0.05): significantly higher when compared to FLC; effectiveness against the promastigote stage of L. Mexicana, in words [14]: effective; IC50 ([14]; Leishmania mexicana, promastigote stage, 50% of control growth, read-out: L. mexicana (IC50 μM)): 11.4 ± 1.5 µM
COc1ccc(-c2cc3cnn([C@H](C)[C@](O)(Cn4cncn4)c4ccc(F)cc4F)c(=O)n3c2)cc1 [Compound 51, 3-[(1R,2R)-2-(2,4-Difluorophenyl)-2-hydroxy-1-methyl-3-(1,2,4-triazol-1-yl)propyl]-7-(4-methoxyphenyl)-3H-pyrrolo[1,2-d][1,2,4]triazin-4-one] | < 0.001 | < 0.001 | 0.017 ± 0.003 (≈ 0.0345 µM) | 0.081 ± 0.009 (≈ 0.164 µM) | 6.52 ± 0.16 (≈ 13.2 µM) | 6.08 ± 0.29 (≈ 12.3 µM) | 5.84 ± 0.2 (≈ 11.9 µM) | 2.21 ± 0.09 (≈ 4.49 µM) | 6.01 ± 0.48 (≈ 12.2 µM) | 6.6 ± 0.24 (≈ 13.4 µM) | didn't show any cytotoxic effect | significant longer survival | most active | MIC ([15]; Candida albicans, read-out: MIC values CAAL117): 0.018 ± 0.002 µg/mL (≈ 0.0365 µM); fold more active than voriconazole against CAAL117 ([15]; compared with voriconazole): 100 fold; MIC [16]: 0.062 ± 0.032 µg/mL (≈ 0.126 µM); activity against ITRA-resistant isolate ASFU13, in words [17]: active; MIC ([17]; Aspergillus fumigatus, read-out: MIC values ASFU13): 2.03 µg/mL (≈ 4.12 µM); MIC [18]: > 49 µg/mL; MIC [19]: > 49 µg/mL; MIC values against ITRA-resistant isolate carrying M220T mutation (ASFU77), in words [12]: in the micromolar range; activity against ITRA-resistant isolate ASFU20, in words [20]: active; MIC ([20]; Aspergillus fumigatus, read-out: MIC values ASFU20): 3.14 µg/mL (≈ 6.38 µM); activity against ITRA-resistant isolate ASFU23, in words [21]: active; MIC ([21]; Aspergillus fumigatus, read-out: MIC values ASFU23): 1.92 µg/mL (≈ 3.9 µM); acute oral LD50 (CRL:(WI) rats; female CRL:(WI) rats, single oral gavage): above 300 mg/kg bw; GHS ranking for acute oral exposure (CRL:(WI) rats; female, CRL:(WI), rat, in vivo, po, 14 days): Category 4; body weight gains (CRL:(WI) rats; rat, in vivo, po, 300 mg/kg): no indication of a test item-related effect; clinical observations (CRL:(WI) rats; rat, in vivo, po, 300 mg/kg): hunched back and slightly decreased activity; mortality (CRL:(WI) rats; rat, in vivo, po, 300 mg/kg): did not cause mortality
